The results in this text go back to US10300106B2, “Autophagy-inducing peptide analogs” (Board of Regents, The University of Texas System, priority 2013, dated 2019).

Non-standard residues stand in square brackets, D forms with d. No end group written: not given here.

The first experiment relates to autophagy (p62 degradation, LC3-I to LC3-II conversion). In words: Biochemical autophagy assays: western blot detection of p62 and of the conversion of LC3-I into LC3-II. Type of experiment: cell-based. The following applies: 10 micromolar; western blot; compared to 10 micromolar Tat-Beclin 1 compound. As to the method:
Autophagy can be detected directly, indirectly or inferentially by conventional assays, such as disclosed and/or exemplified herein, including biochemically (by assessing the generation of Atg8-PE or LC3-II or the degradation of p62) or microscopically (e.g. by observing the localization pattern of fluorescently tagged Atg8 or LC3).
To further assess the components of the beclin 1 peptide required for autophagy-inducing activity, a series of shorter peptides were developed. Activity was measured by biochemical autophagy assays including western blot detection of p62 (a protein degraded by autophagy) and western blot detection of the conversion of LC3-I into LC3-II (the lipidated autophagosome-associated form of LC3).
On the technique in general: Immunoblotting shows a protein as a band on a membrane.
VFNATFEIWHD [Wild-type (wt)]: the LC3-II conversion result is “increased LC3-II conversion” and the p62 degradation result was “increased p62 degradation”.

Still in this experiment, the particulars now being: relative to the wild-type (wt) peptide; all peptides carry the 11 amino acid HIV TAT PTD and diglycine linker.
For the sequence “VFNATFEIWH (HIV TAT PTD and diglycine linker fused) [Mutant 25, HIV TAT PTD-diglycine fusion peptide]”, the “Activity (autophagy inducing activity)” value is recorded as “>wt”. For “CFNATFEIWHD ({Tat PTD}-GGCFNATFEIWHD) [Mutant 1, HIV TAT PTD-diglycine fusion peptide]”, the “Activity (autophagy inducing activity)” value is given as “~wt”. Still for that read-out and setting: with “VFNATFEIWYD (HIV TAT PTD-diglycine fusion) [Mutant 10, HIV TAT PTD-diglycine fusion peptide]” the entry was “~wt”; with “VFNACFEIWHD (HIV TAT PTD and diglycine linker fused) [Mutant 5, HIV TAT PTD-diglycine fusion peptide]”, “<wt”; with “VYNATFEIWHD (HIV TAT PTD-diglycine fusion) [Mutant 13, HIV TAT PTD-diglycine fusion peptide]”, “<wt”. As to “VFNATWEIWHD (HIV TAT PTD and diglycine linker fused) [Mutant 6, HIV TAT PTD-diglycine fusion peptide]”, the “Activity (autophagy inducing activity)” value is on record as “<wt”. Still for that read-out and setting: with “VFNATFEMWHD (HIV TAT PTD-diglycine fusion) [Mutant 16, HIV TAT PTD-diglycine fusion peptide]” the entry was “~wt”; with “FNATFEIWHD (HIV TAT PTD and diglycine linker fused) [Mutant 21, HIV TAT PTD-diglycine fusion peptide]”, “>wt”; with “VFNATFERWHD (HIV TAT PTD and diglycine linker fused) [Mutant 20, HIV TAT PTD-diglycine fusion peptide]”, “~wt”. As for “VWNATFHIWHD (HIV TAT PTD-diglycine fusion) [Mutant 17, HIV TAT PTD-diglycine fusion peptide]”, the “Activity (autophagy inducing activity)” value is “>>wt”. Turning to “VFNATFEVWHD (HIV TAT PTD-diglycine fusion) [Mutant 14, HIV TAT PTD-diglycine fusion peptide]”, the “Activity (autophagy inducing activity)” value was “~wt”.

“WNATFHIWHD (HIV TAT PTD and diglycine linker fused) [Mutant 29, HIV TAT PTD-diglycine fusion peptide]”: the “Activity (autophagy inducing activity)” value is recorded as “>>wt”.

Turning to “VWNATFELWHD (HIV TAT PTD-diglycine fusion) [Mutant 12, HIV TAT PTD-diglycine fusion peptide]”, the “Activity (autophagy inducing activity)” value was “~wt”.

Regarding “VFNATFEFWHD (HIV TAT PTD and diglycine linker fused) [Mutant 18, HIV TAT PTD-diglycine fusion peptide]”, the “Activity (autophagy inducing activity)” value was “~wt”. Take “VFNATFEIWHE (HIV TAT PTD-diglycine fusion) [Mutant 11, HIV TAT PTD-diglycine fusion peptide]”: the “Activity (autophagy inducing activity)” value was “~wt”. The same measure, in the same setting: with “VFDATFEIWHD ({Tat PTD}-GGVFDATFEIWHD) [Mutant 3, HIV TAT PTD-diglycine fusion peptide]” the entry was “<<wt”; with “WNATFHIWH (HIV TAT PTD and diglycine linker fused) [Mutant 27, HIV TAT PTD-diglycine fusion peptide]”, “>>wt”; with “VFNATFDIWHD (HIV TAT PTD and diglycine linker fused) [Mutant 7, HIV TAT PTD-diglycine fusion peptide]”, “~wt”. Take VFNATFEIWHD [Wild-type (wt)]: the “Activity (autophagy inducing activity)” value is “wt”. As for “VFNATFEIFHD (HIV TAT PTD and diglycine linker fused) [Mutant 9, HIV TAT PTD-diglycine fusion peptide]”, the “Activity (autophagy inducing activity)” value is “~wt”. As for “DHWIHFTANWV ([dD][dH][dW][dI][dH][dF][dT][dA][dN][dW][dV]; also: fused to TAT PTD via diglycine linker) [Mutant 30, D-retro-inverso counterpart of Mutant 17, with TAT PTD and diglycine linker]”, the “Activity (autophagy inducing activity)” value is listed as “>>wt”. With “VLNATFEIWHD (HIV TAT PTD-diglycine fusion) [Mutant 15, HIV TAT PTD-diglycine fusion peptide]”, the “Activity (autophagy inducing activity)” value is “~wt”. The same measure, in the same setting: with “VFNSTFEIWHD ({Tat PTD}-GGVFNSTFEIWHD) [Mutant 4, HIV TAT PTD-diglycine fusion peptide]” the entry was “<<wt”; with “VFNATFELWHD (HIV TAT PTD and diglycine linker fused) [Mutant 8, HIV TAT PTD-diglycine fusion peptide]”, “>wt”. For the sequence “VWNATFEIWHD ({Tat PTD}-GGVWNATFEIWHD) [Mutant 2, HIV TAT PTD-diglycine fusion peptide]”, the “Activity (autophagy inducing activity)” value is given as “>wt”.

For the sequence “VWNATFHIWH (HIV TAT PTD and diglycine linker fused) [Mutant 28, HIV TAT PTD-diglycine fusion peptide]”, the “Activity (autophagy inducing activity)” value is recorded as “>>wt”. Consider “VFNATFEYWHD (HIV TAT PTD and diglycine linker fused) [Mutant 19, HIV TAT PTD-diglycine fusion peptide]”, for which the “Activity (autophagy inducing activity)” value is on record as “~wt”.

In the case of “FNATFEIWH (HIV TAT PTD and diglycine linker fused) [Mutant 26, HIV TAT PTD-diglycine fusion peptide]”, the “Activity (autophagy inducing activity)” value was “>>wt”.
